According to ChEMBL document CHEMBL3593175, “Bicyclic [3.3.0]-Octahydrocyclopenta[c]pyrrolo Antagonists of Retinol Binding Protein 4: Potential Treatment of Atrophic Age-Related Macular Degeneration and Stargardt Disease” (J Med Chem, 2015):

Legend:
[1] = target: T1, Retinol-binding protein 4 (Homo sapiens, UniProt P02753); experiment: Displacement of [3H]-retinol from RBP4 (unknown origin) by scintillation proximity assay
[2] = target: T1, Retinol-binding protein 4; experiment: Inhibition of retinol-induced interaction of bacterially expressed MBP-tagged RBP4 (unknown origin) with Eu3+ cryptate labeled TTR by HTRF assay
[3] = Metabolic stability in human liver microsomes assessed as compound remaining at 10 uM after 30 mins; assay type: ADME; conditions: read-out: Stability
[4] = Metabolic stability in rat liver microsomes assessed as compound remaining at 10 uM after 30 mins; assay type: ADME; conditions: read-out: Stability

| IC50 [1] [nM] | IC50 [2] [nM] | remaining at 0.5 h, 10 µM [3] [%] | remaining at 0.5 h, 10 µM [4] [%] | SMILES |
| --- | --- | --- | --- | --- |
| 153 | – | – | – | CC(C)c1cc(C(=O)O)nc(N2C[C@H]3C[C@@H](c4ccccc4C(F)(F)F)C[C@H]3C2)n1 |
| 29.3 | 495 | – | – | Cc1sc(N2C[C@H]3C[C@@H](c4ccccc4C(F)(F)F)C[C@H]3C2)nc1C(=O)O |
| 35.3 | 188 | 68 | 96 | Cc1cc(C(=O)O)nc(N2CCC(c3ccccc3C(F)(F)F)CC2)n1 |
| 137 | 504 | – | – | Cc1cc(C(=O)O)nc(N2C[C@H]3C[C@@H](c4cccc(F)c4Cl)C[C@H]3C2)n1 |
| 4.1 | 132 | – | – | COC(=O)c1cc(C)nc(N2CCC(c3ccccc3C(F)(F)F)CC2)n1 |
| 196 | – | – | – | Cc1cc(C(=O)O)nc(N2C[C@H]3C[C@@H](c4cccc(F)c4C(F)(F)F)C[C@H]3C2)n1 |
| 89.5 | 511 | 18 | 63 | Cc1cc(C(=O)O)nc(N2CCN(c3ccccc3C(F)(F)F)CC2)n1 |
| 46.3 | 33.4 | – | – | Cc1cc(C(=O)O)nc(N2C[C@H]3C[C@@H](c4cc(F)ccc4C(F)(F)F)C[C@H]3C2)n1 |
| 23 | 437 | – | – | O=C(O)c1cnnc(N2C[C@H]3C[C@@H](c4ccccc4C(F)(F)F)C[C@H]3C2)c1 |
| 532 | 347 | – | – | Cc1cc(C(=O)O)nc(N2C[C@H]3C[C@@H](c4cc(F)ccc4Cl)C[C@H]3C2)n1 |
| 51.8 | 821 | – | – | Cc1cc(C(=O)O)nc(N2C[C@H]3C[C@@H](c4cnccc4C(F)(F)F)C[C@H]3C2)n1 |
| > 3000 | – | – | – | O=C(O)c1cncc(N2C[C@H]3C[C@@H](c4ccccc4C(F)(F)F)C[C@H]3C2)c1 |
| 584 | 4910 | – | – | Cc1ccc(N2C[C@H]3C[C@@H](c4ccccc4C(F)(F)F)C[C@H]3C2)nc1C(=O)O |
